{
  "source": "paper PMC5218480",
  "about": "(PLoS ONE, 2017)",
  "tested_on": "MV-4-11 cells",
  "experiment": "Gene expression microarray analysis (Affymetrix PrimeView) and GSEA",
  "type": "cell-based, human",
  "set-up": "RFU PODN (11730768_x_at) / Fold change /veh PODN (11730768_x_at) / RFU LINC00158 (11744669_a_at) / Fold change /veh LINC00158 (11744669_a_at) / RFU DUSP10 (11751237_a_at) / Fold change /veh DUSP10 (11751237_a_at) / RFU ID3 (11757404_x_at) / Fold change /veh ID3 (11757404_x_at) / RFU PLEKHG5 (11737974_s_at) / Fold change /veh PLEKHG5 (11737974_s_at) / RFU LRRC4B (11730491_at) / Fold change /veh LRRC4B (11730491_at) / RFU GIMAP4 (11747438_a_at) / Fold change /veh GIMAP4 (11747438_a_at) / RFU KRT8 (11758183_x_at) / Fold change /veh KRT8 (11758183_x_at) / RFU CNN1 (11734310_a_at) / Fold change /veh CNN1 (11734310_a_at) / RFU VPS37D (11726825_at) / Fold change /veh VPS37D (11726825_at) / RFU C10orf10 (11716522_x_at) / Fold change /veh C10orf10 (11716522_x_at) / RFU KIR2DL2 /// KIR2DL4 /// KIR2DL5A /// KIR2DL5B /// KIR2DS1 /// KIR2DS2 /// KIR2DS3 /// KIR2DS4 /// KIR3DL3 /// KIR3DL3 /// KIR3DS1 (11738374_at) / Fold change /veh KIR2DL2 /// KIR2DL4 /// KIR2DL5A /// KIR2DL5B /// KIR2DS1 /// KIR2DS2 /// KIR2DS3 /// KIR2DS4 /// KIR3DL3 /// KIR3DL3 /// KIR3DS1 (11738374_at) / RFU C1QL1 (11718748_at) / Fold change /veh C1QL1 (11718748_at) / RFU TMPRSS4 (11747572_a_at) / Fold change /veh TMPRSS4 (11747572_a_at) / RFU HAMP (11756126_x_at) / Fold change /veh HAMP (11756126_x_at) / RFU RNFT2 (11725882_a_at) / Fold change /veh RNFT2 (11725882_a_at) / RFU NR4A2 (11747474_a_at) / Fold change /veh NR4A2 (11747474_a_at) / RFU ABCC12 (11746883_a_at) / Fold change /veh ABCC12 (11746883_a_at) / RFU TMEM136 (11760407_x_at) / Fold change /veh TMEM136 (11760407_x_at) / RFU CLDN22 /// WWC2 (11732394_at) / Fold change /veh CLDN22 /// WWC2 (11732394_at) / RFU HLA-DPB1 (11760878_x_at) / Fold change /veh HLA-DPB1 (11760878_x_at) / RFU SPINT1 (11716480_a_at) / Fold change /veh SPINT1 (11716480_a_at) / RFU GAP43 (11754022_s_at) / Fold change /veh GAP43 (11754022_s_at) / RFU A4GNT (11735810_at) / Fold change /veh A4GNT (11735810_at) / RFU PRB3 (11715151_x_at) / Fold change /veh PRB3 (11715151_x_at) / RFU TUBB4B (11761932_at) / Fold change /veh TUBB4B (11761932_at) / RFU CAPN14 (11732068_a_at) / Fold change /veh CAPN14 (11732068_a_at) / RFU TMCC2 (11721928_a_at) / Fold change /veh TMCC2 (11721928_a_at) / RFU IRGQ (11745062_a_at) / Fold change /veh IRGQ (11745062_a_at) / RFU FAM174B (11720279_a_at) / Fold change /veh FAM174B (11720279_a_at) / RFU TMPRSS4 (11748680_a_at) / Fold change /veh TMPRSS4 (11748680_a_at) / RFU FAM212B (11763350_a_at) / Fold change /veh FAM212B (11763350_a_at) / RFU PLEKHG5 (11743358_a_at) / Fold change /veh PLEKHG5 (11743358_a_at) / RFU ZSCAN30 (11745921_a_at) / Fold change /veh ZSCAN30 (11745921_a_at) / RFU CMKLR1 (11741424_a_at) / Fold change /veh CMKLR1 (11741424_a_at) / RFU LOC101060620 /// MAPK8IP1 (11723275_at) / Fold change /veh LOC101060620 /// MAPK8IP1 (11723275_at) / RFU SPTSSB (11747773_x_at) / Fold change /veh SPTSSB (11747773_x_at) / RFU PRSS12 (11739890_at) / Fold change /veh PRSS12 (11739890_at) / RFU BIN1 (11741810_x_at) / Fold change /veh BIN1 (11741810_x_at) / RFU WNT11 (11732464_a_at) / Fold change /veh WNT11 (11732464_a_at) / RFU C10orf10 (11716521_a_at) / Fold change /veh C10orf10 (11716521_a_at) / RFU C5orf56 (11738089_at) / Fold change /veh C5orf56 (11738089_at) / RFU CYB561 (11721691_x_at) / Fold change /veh CYB561 (11721691_x_at) / RFU ANKRD19P (11752326_a_at) / Fold change /veh ANKRD19P (11752326_a_at) / RFU OR2T12 /// OR2T33 /// OR2T8 (11738714_s_at) / Fold change /veh OR2T12 /// OR2T33 /// OR2T8 (11738714_s_at) / RFU VCAN (11748164_a_at) / Fold change /veh VCAN (11748164_a_at) / RFU JSRP1 (11732532_at) / Fold change /veh JSRP1 (11732532_at) / RFU KRTAP10-11 (11738290_x_at) / Fold change /veh KRTAP10-11 (11738290_x_at) / RFU MYO3A (11730013_a_at) / Fold change /veh MYO3A (11730013_a_at) / RFU EBF3 (11725865_a_at) / Fold change /veh EBF3 (11725865_a_at) / RFU CAMK2N1 (11719241_x_at) / Fold change /veh CAMK2N1 (11719241_x_at) / RFU C5orf56 (11738088_a_at) / Fold change /veh C5orf56 (11738088_a_at) / RFU OLFML3 (11715873_a_at) / Fold change /veh OLFML3 (11715873_a_at) / RFU LOC100653217 /// NTM (11731650_a_at) / Fold change /veh LOC100653217 /// NTM (11731650_a_at) / RFU MAPK11 (11762145_a_at) / Fold change /veh MAPK11 (11762145_a_at) / RFU FIZ1 (11724087_x_at) / Fold change /veh FIZ1 (11724087_x_at) / RFU OASL (11726364_x_at) / Fold change /veh OASL (11726364_x_at) / RFU SOX15 (11748057_x_at) / Fold change /veh SOX15 (11748057_x_at) / RFU CD79A (11719716_a_at) / Fold change /veh CD79A (11719716_a_at) / RFU HIST1H1D (11736915_at) / Fold change /veh HIST1H1D (11736915_at) / RFU CASKIN2 (11723855_a_at) / Fold change /veh CASKIN2 (11723855_a_at) / RFU LOC730098 (11760151_x_at) / Fold change /veh LOC730098 (11760151_x_at) / RFU OR4N2 (11742367_at) / Fold change /veh OR4N2 (11742367_at) / RFU PRRT2 (11749266_a_at) / Fold change /veh PRRT2 (11749266_a_at) / RFU SNX32 (11753110_a_at) / Fold change /veh SNX32 (11753110_a_at) / RFU CDHR5 (11726645_a_at) / Fold change /veh CDHR5 (11726645_a_at) / RFU RCAN1 (11760418_a_at) / Fold change /veh RCAN1 (11760418_a_at) / RFU FAM167A (11723789_a_at) / Fold change /veh FAM167A (11723789_a_at) / RFU FAM26E (11764081_at) / Fold change /veh FAM26E (11764081_at) / RFU ISYNA1 (11749810_s_at) / Fold change /veh ISYNA1 (11749810_s_at) / RFU ACY1 (11761880_at) / Fold change /veh ACY1 (11761880_at) / RFU 11764098_at / Fold change /veh 11764098_at / RFU SAMD14 (11745864_x_at) / Fold change /veh SAMD14 (11745864_x_at) / RFU NPB (11741838_a_at) / Fold change /veh NPB (11741838_a_at) / RFU TMPRSS6 (11731388_a_at) / Fold change /veh TMPRSS6 (11731388_a_at) / RFU KRTAP10-2 (11738614_at) / Fold change /veh KRTAP10-2 (11738614_at) / RFU ARHGAP8 /// PRR5-ARHGAP8 (11727945_x_at) / Fold change /veh ARHGAP8 /// PRR5-ARHGAP8 (11727945_x_at) / RFU KRTAP5-7 /// NADSYN1 (11734609_at) / Fold change /veh KRTAP5-7 /// NADSYN1 (11734609_at) / RFU RASL12 (11751679_a_at) / Fold change /veh RASL12 (11751679_a_at) / RFU CDKN2B (11736163_a_at) / Fold change /veh CDKN2B (11736163_a_at) / RFU PRF1 (11729649_at) / Fold change /veh PRF1 (11729649_at) / RFU, ZNF638 /// ZNF638-IT1 / Fold change vs veh, ZNF638 /// ZNF638-IT1 / RFU, PANK3 / Fold change vs veh, PANK3 / RFU, SH3YL1 / Fold change vs veh, SH3YL1 / RFU, ZEB2 / Fold change vs veh, ZEB2 / RFU, NRIP1 / Fold change vs veh, NRIP1 / RFU, PTTG1IP / Fold change vs veh, PTTG1IP / RFU, CAPN2 / Fold change vs veh, CAPN2 / RFU, MED14 / Fold change vs veh, MED14 / RFU, SNORA58 / Fold change vs veh, SNORA58 / RFU, C1orf63 / Fold change vs veh, C1orf63 / RFU, LRRFIP1 / Fold change vs veh, LRRFIP1 / RFU, NDUFAF7 / Fold change vs veh, NDUFAF7 / RFU, SLC12A2 / Fold change vs veh, SLC12A2 / RFU, IBTK / Fold change vs veh, IBTK / RFU, ESF1 / Fold change vs veh, ESF1 / Fold change vs veh, TMEM50B / RFU, TAOK1 / Fold change vs veh, TAOK1 / RFU, ACBD3 / Fold change vs veh, ACBD3 / RFU, TMA16 / Fold change vs veh, TMA16 / RFU, RWDD3 / Fold change vs veh, RWDD3 / RFU, BCAT1 / Fold change vs veh, BCAT1 / RFU, EDEM3 / Fold change vs veh, EDEM3 / RFU, TMEM33 / Fold change vs veh, TMEM33 / RFU, WDR75 / Fold change vs veh, WDR75 / RFU, AHCTF1 / Fold change vs veh, AHCTF1 / RFU, TFRC / Fold change vs veh, TFRC / RFU, ZDHHC17 / Fold change vs veh, ZDHHC17 / RFU, NOM1 / Fold change vs veh, NOM1 / RFU, ARL8B / Fold change vs veh, ARL8B / RFU, ZBTB11 / Fold change vs veh, ZBTB11 / RFU, TAMM41 / Fold change vs veh, TAMM41 / RFU, KIAA1704 /// LOC100996395 / Fold change vs veh, KIAA1704 /// LOC100996395 / RFU, ING1 / Fold change vs veh, ING1 / RFU, TRMT61B / Fold change vs veh, TRMT61B / RFU, FUBP3 / Fold change vs veh, FUBP3 / RFU, TP53 / Fold change vs veh, TP53 / RFU, TNKS2 / Fold change vs veh, TNKS2 / RFU, ZFP14 / Fold change vs veh, ZFP14 / RFU, ACTR2 / Fold change vs veh, ACTR2 / RFU, PPP3R1 / Fold change vs veh, PPP3R1 / RFU, PIK3R1 / Fold change vs veh, PIK3R1 / RFU, HNRNPA1 / Fold change vs veh, HNRNPA1 / RFU, RNF170 / Fold change vs veh, RNF170 / RFU, ZNF28 / Fold change vs veh, ZNF28 / RFU, RNGTT / Fold change vs veh, RNGTT / RFU, OGT / Fold change vs veh, OGT / RFU, BRD1 / Fold change vs veh, BRD1 / RFU, MARS / Fold change vs veh, MARS / RFU, ZNF655 / Fold change vs veh, ZNF655 / RFU, FAHD1 / Fold change vs veh, FAHD1 / RFU, BDP1 / Fold change vs veh, BDP1 / RFU, LRRCC1 / Fold change vs veh, LRRCC1 / RFU, ARID1A / Fold change vs veh, ARID1A / RFU, ZNF146 / Fold change vs veh, ZNF146 / RFU, ZNF330 / Fold change vs veh, ZNF330 / RFU, GPN3 / Fold change vs veh, GPN3 / RFU, C9orf123 / Fold change vs veh, C9orf123 / RFU, N4BP2L2 / Fold change vs veh, N4BP2L2 / RFU, ARFIP1 / Fold change vs veh, ARFIP1 / RFU, FAM179B / Fold change vs veh, FAM179B / RFU, BCL10 / Fold change vs veh, BCL10 / RFU, UHRF1BP1L / Fold change vs veh, UHRF1BP1L / RFU, BET1 / Fold change vs veh, BET1 / RFU, CNOT2 / Fold change vs veh, CNOT2 / RFU, ZNF268 / Fold change vs veh, ZNF268 / Fold change vs veh, ZNF507 / RFU, DGCR2 / Fold change vs veh, DGCR2 / RFU, WDSUB1 / Fold change vs veh, WDSUB1 / Fold change vs veh, HSP90B1 /// MIR3652 / RFU, ADSS / Fold change vs veh, ADSS / RFU, GK / Fold change vs veh, GK / RFU, ZNF148 / Fold change vs veh, ZNF148 / RFU, TAF9 / Fold change vs veh, TAF9 / RFU, SLC1A5 / Fold change vs veh, SLC1A5 / RFU, SLMO2 / Fold change vs veh, SLMO2 / RFU, ABCC4 / Fold change vs veh, ABCC4 / RFU, LOC101060439 /// RAP1B / Fold change vs veh, LOC101060439 /// RAP1B / RFU, RFX7 / Fold change vs veh, RFX7 / RFU, GTPBP10 / Fold change vs veh, GTPBP10 / RFU, CNEP1R1 / Fold change vs veh, CNEP1R1 / RFU, BIVM-ERCC5 /// ERCC5 / Fold change vs veh, BIVM-ERCC5 /// ERCC5 / RFU, ILF3 / Fold change vs veh, ILF3 / RFU 11762660_at / Fold change /veh 11762660_at / RFU VCAN (11757783_s_at) / Fold change /veh VCAN (11757783_s_at) / RFU DDX43 (11728927_at) / Fold change /veh DDX43 (11728927_at) / RFU KRT8 (11758188_x_at) / Fold change /veh KRT8 (11758188_x_at) / RFU NKD1 (11759106_at) / Fold change /veh NKD1 (11759106_at) / RFU SRD5A1 (11742802_a_at) / Fold change /veh SRD5A1 (11742802_a_at) / RFU TPSAB1 /// TPSB2 (11721975_s_at) / Fold change /veh TPSAB1 /// TPSB2 (11721975_s_at) / RFU GSTM3 (11746129_a_at) / Fold change /veh GSTM3 (11746129_a_at) / RFU IL23R (11737362_x_at) / Fold change /veh IL23R (11737362_x_at) / RFU TMEM51 (11727254_a_at) / Fold change /veh TMEM51 (11727254_a_at) / RFU PIWIL2 (11732686_x_at) / Fold change /veh PIWIL2 (11732686_x_at) / RFU ORM1 (11744905_x_at) / Fold change /veh ORM1 (11744905_x_at) / RFU CCDC152 (11743942_at) / Fold change /veh CCDC152 (11743942_at) / RFU ECM1 (11717891_a_at) / Fold change /veh ECM1 (11717891_a_at) / RFU IL23R (11748794_a_at) / Fold change /veh IL23R (11748794_a_at) / RFU TNFAIP8L3 (11732012_x_at) / Fold change /veh TNFAIP8L3 (11732012_x_at) / RFU MBOAT4 (11741988_at) / Fold change /veh MBOAT4 (11741988_at) / RFU 11764193_at / Fold change /veh 11764193_at / RFU TMEM53 (11763286_at) / Fold change /veh TMEM53 (11763286_at) / RFU MAGEB2 (11727129_at) / Fold change /veh MAGEB2 (11727129_at) / RFU TMEM200A (11744735_a_at) / Fold change /veh TMEM200A (11744735_a_at) / RFU CCDC152 (11751479_a_at) / Fold change /veh CCDC152 (11751479_a_at) / RFU FAM211A (11726209_a_at) / Fold change /veh FAM211A (11726209_a_at) / RFU RGS16 (11746705_a_at) / Fold change /veh RGS16 (11746705_a_at) / RFU VCAN (11755009_s_at) / Fold change /veh VCAN (11755009_s_at) / RFU RHOB (11743442_s_at) / Fold change /veh RHOB (11743442_s_at) / RFU RGS16 (11720943_a_at) / Fold change /veh RGS16 (11720943_a_at) / RFU RGS16 (11720944_at) / Fold change /veh RGS16 (11720944_at) / RFU, VPS4B / Fold change vs veh, VPS4B / RFU, CREB1 / Fold change vs veh, CREB1 / RFU, DNAJC13 / Fold change vs veh, DNAJC13 / RFU, GNAQ / Fold change vs veh, GNAQ / RFU, CDK5R1 / Fold change vs veh, CDK5R1 / RFU, ZRANB3 / Fold change vs veh, ZRANB3 / RFU, CUL4A / Fold change vs veh, CUL4A / RFU, CCNY / Fold change vs veh, CCNY / RFU, UFL1 / Fold change vs veh, UFL1 / RFU, COG3 / Fold change vs veh, COG3 / RFU, DIAPH2 / Fold change vs veh, DIAPH2 / RFU, SKA2 / Fold change vs veh, SKA2 / RFU, AFF3 / Fold change vs veh, AFF3 / RFU, LMF1 / Fold change vs veh, LMF1 / RFU, IPO11 / Fold change vs veh, IPO11 / RFU, DFFB / Fold change vs veh, DFFB / RFU, FOXP1 / Fold change vs veh, FOXP1 / RFU, CARD8 / Fold change vs veh, CARD8 / RFU, STRN3 / Fold change vs veh, STRN3 / RFU, ADK / Fold change vs veh, ADK / RFU, RASSF2 / Fold change vs veh, RASSF2 / RFU, WIPF1 / Fold change vs veh, WIPF1 / RFU, LARP1B / Fold change vs veh, LARP1B / RFU, RASA1 / Fold change vs veh, RASA1 / RFU, RB1 / Fold change vs veh, RB1 / RFU, PPFIA1 / Fold change vs veh, PPFIA1 / RFU, MAT2A / Fold change vs veh, MAT2A / RFU, CCT5 / Fold change vs veh, CCT5 / RFU, WDR92 / Fold change vs veh, WDR92 / RFU, CUX1 / Fold change vs veh, CUX1 / RFU, TTC7A / Fold change vs veh, TTC7A / RFU, TMEM135 / Fold change vs veh, TMEM135 / RFU, DEPTOR / Fold change vs veh, DEPTOR / RFU, CPM / Fold change vs veh, CPM / RFU, DNAJB6 / Fold change vs veh, DNAJB6 / RFU, CACNA2D3 / Fold change vs veh, CACNA2D3 / RFU, DTX4 / Fold change vs veh, DTX4 / RFU, TFCP2 / Fold change vs veh, TFCP2 / RFU, GMCL1 /// GMCL1P1 / Fold change vs veh, GMCL1 /// GMCL1P1 / RFU, AEBP2 / Fold change vs veh, AEBP2 / RFU, SNHG1 /// SNORD22 /// SNORD25 /// SNORD26 /// SNORD27 /// SNORD28 /// SNORD29 /// SNORD31 / Fold change vs veh, SNHG1 /// SNORD22 /// SNORD25 /// SNORD26 /// SNORD27 /// SNORD28 /// SNORD29 /// SNORD31 / Fold change (Aza/veh), C12orf56 (ProbeSet 11735607_a_at) / Fold change (ACY-1035/veh), C12orf56 (ProbeSet 11735607_a_at) / Fold change (Aza/veh), FGFR1OP (ProbeSet 11751329_s_at) / Fold change (ACY-1035/veh), FGFR1OP (ProbeSet 11751329_s_at) / Fold change (Aza/veh), VPS36 (ProbeSet 11739960_a_at) / Fold change (ACY-1035/veh), VPS36 (ProbeSet 11739960_a_at) / RFU SYPL1 (11715823_x_at) / Fold change /veh SYPL1 (11715823_x_at) / RFU IGFBP7 (11715501_s_at) / Fold change /veh IGFBP7 (11715501_s_at) / RFU REEP3 (11722064_at) / Fold change /veh REEP3 (11722064_at) / RFU IGLL1 (11728026_x_at) / Fold change /veh IGLL1 (11728026_x_at): dose or concentration left out as unconfirmed",
  "conditions": "ProbeSet 11758779_at; LIST B",
  "data": [
    {"smiles": "Nc1ncn([C@@H]2O[C@H](CO)[C@@H](O)[C@H]2O)c(=O)n1", "note": "[azacitidine]", "values": [
      {"measurement": "Fold change vs veh, TMEM50B", "value": 0.94}
    ]}
  ]
}
